Experimental data as given in patent US20240239816A1, “BORONO-PHENYLALANINE DERIVATIVE” (STELLA PHARMA CORPORATION, priority 2021, published 2024).

System: human LAT1 and LAT2 highly expressing HEK 293 cell lines
Assay: Evaluation of LAT1 and LAT2-selective uptake
Format: cell-based
Details: (uptake in LAT1 cells / L-BPA uptake in LAT1 cells)/(uptake in LAT2 cells / L-BPA uptake in LAT2 cells); substrate concentration 0.1 mM; relative to L-BPA on the same day
Protocol: HEK 293 cells that stably highly express human LAT1 and LAT2 respectively were prepared according to the method described in the article of Khunweeraphong, N et al. (Journal of Pharmacology Science, 2012, vol. 119, pp 368-380). A shuttle vector DNA (LAT1: EX-H 4509-M02, LAT2: EX-U0514-M02, manufactured by GeneCopoeia) having ampicillin and neomycin resistance markers and having full-length cDNA of human LAT1 or LAT2 inserted under the promoter of cytomegalovirus (CMV) was constructed. This vector was transfected into HEK 293 cells by a method using Lipofectamine (registered trademark) 2000 (Invitrogen) in accordance with the manufacturer's instructions. Thereafter, the stably expressing cell clone of the transgene was selected by the limiting dilution method in the presence of 0.9 mg/mL Geneticin (registered trademark), and a cell clone in which the uptake of L-boronophenylalanine (L-BPA) was enhanced by about 2 to about 5 times as compared with HEK 293 cells before transfection was obtained. This cell was passaged and used for evaluation of LAT1 and LAT2-selective uptake.
As a method for evaluating cell uptake, the same method as in the article of Khunweeraphong, N et al. (Journal of Pharmacology Science, 2012, vol. 119, pp 368-380) was used. Each of the cells obtained in (1) was used for evaluation. Radioactive isotopes were not used, a substrate concentration was 0.1 mM, and 2 mM BCH (2-amino-2-norbonanecarboxylic acid) was used as an LAT1 and LAT2 inhibitor. The reacted cells were collected with 0.05% Tween 20 and the concentration of the 4-borono-phenylalanine derivative in the cell fluid was determined. Quantification of the 4-borono-phenylalanine derivative in cells was performed in accordance with the method described in the article of Hattori, Y, et al. (Sensors 2017, 17, 2436), using 2-(2-hydroxyphenyl)pyridine (boron sensor 5) as a boron sensor. In the evaluation of cell uptake, in consideration of variations between experiments, the cell uptake was evaluated as a value (LAT1 selectivity) relative to the uptake of L-BPA as a comparative object performed on the same day.
LAT1 selectivity=(quantitative value of uptake of the compound in LAT1 cells/quantitative value of uptake of control L-BPA in LAT1 cells)/(quantitative value of uptake of the compound in LAT2 cells/quantitative value of uptake of control L-BPA in LAT2 cells)

Compound	LAT1 selectivity
C[C@@](N)(Cc1ccc(B(O)O)cc1C(F)F)C(=O)O [Example 36, (R)-2-Amino-3-(4-borono-2-(difluoromethyl)phenyl)-2-methylpropanoic acid]	twice or more
C[C@](N)(Cc1ccc(B(O)O)cc1F)C(=O)O [Example 1, (S)-2-amino-3-(4-borono-2-fluorophenyl)-2-methylpropanoic acid]	twice or more
Cc1cc(C[C@H](N)C(=O)O)ncc1B(O)O [Example 51, (S)-2-Amino-3-(5-borono-4-methylpyridin-2-yl)propanoic acid]	twice or more
C[C@](N)(Cc1cc(F)c(B(O)O)cc1Cl)C(=O)O [Example 29, (S)-2-Amino-3-(4-borono-2-chloro-5-fluorophenyl)-2-methylpropanoic acid]	twice or more
C[C@@](N)(Cc1ccc(B(O)O)cc1C(F)(F)F)C(=O)O [Example 6, (R)-2-Amino-3-(4-borono-2-(trifluoromethyl)phenyl)-2-methylpropanoic acid]	twice or more
Cc1cc(C[C@](C)(N)C(=O)O)ccc1B(O)O [Example 17, (S)-2-Amino-3-(4-borono-3-methylphenyl)-2-methylpropanoic acid]	twice or more
C[C@](N)(Cc1ccc(B(O)O)cc1Cl)C(=O)O [Example 9, (S)-2-Amino-3-(4-borono-2-chlorophenyl)-2-methylpropanoic acid]	twice or more
C[C@](N)(Cc1cc(Cl)c(B(O)O)cc1F)C(=O)O [Example 13, (S)-2-Amino-3-(4-borono-5-chloro-2-fluorophenyl)-2-methylpropanoic acid]	twice or more
C[C@@](N)(Cc1ccc(B(O)O)c(F)c1)C(=O)O [Example 16, (R)-2-Amino-3-(4-borono-3-fluorophenyl)-2-methylpropanoic acid]	twice or more
N[C@@H](Cc1ccc(B(O)O)cn1)C(=O)O [Example 44, (S)-2-Amino-3-(5-boronopyridin-2-yl)propanoic acid]	twice or more
N[C@@H](Cc1ncc(B(O)O)cc1Cl)C(=O)O [Example 50, (S)-2-Amino-3-(5-borono-3-chloropyridin-2-yl)propanoic acid]	twice or more
Cc1cc(B(O)O)ccc1C[C@](C)(N)C(=O)O [Example 3, (S)-2-Amino-3-(4-borono-2-methylphenyl)-2-methylpropanoic acid]	twice or more
Cc1cc(B(O)O)ccc1C[C@@](C)(N)C(=O)O [Example 4, (R)-2-Amino-3-(4-borono-2-methylphenyl)-2-methylpropanoic acid]	twice or more
CSc1cc(B(O)O)ccc1C[C@](C)(N)C(=O)O [Example 34, (S)-2-Amino-3-(4-borono-2-(methylthio)phenyl)-2-methylpropanoic acid]	twice or more
C[C@](N)(Cc1ccc(B(O)O)c(Cl)c1)C(=O)O [Example 37, (S)-2-Amino-3-(4-borono-3-chlorophenyl)-2-methylpropanoic acid]	twice or more
C[C@](N)(Cc1ccc(B(O)O)cc1C(F)F)C(=O)O [Example 35, (S)-2-Amino-3-(4-borono-2-(difluoromethyl)phenyl)-2-methylpropanoic acid]	twice or more
C[C@@](N)(Cc1ccc(B(O)O)cc1F)C(=O)O [Example 2, (R)-2-Amino-3-(4-borono-2-fluorophenyl)-2-methylpropanoic acid]	twice or more
C[C@](N)(Cc1ccc(B(O)O)c(F)c1F)C(=O)O [Example 14, (S)-2-Amino-3-(4-borono-2,3-difluorophenyl)-2-methylpropanoic acid]	twice or more
COc1cc(B(O)O)ccc1C[C@](C)(N)C(=O)O [Example 7, (S)-2-Amino-3-(4-borono-2-methoxyphenyl)-2-methylpropanoic acid]	twice or more
C[C@](N)(Cc1ccc(B(O)O)c(F)c1)C(=O)O [Example 15, (S)-2-Amino-3-(4-borono-3-fluorophenyl)-2-methylpropanoic acid]	twice or more
C[C@](N)(Cc1c(F)cc(B(O)O)cc1F)C(=O)O [Example 11, (S)-2-Amino-3-(4-borono-2,6-difluorophenyl)-2-methylpropanoic acid]	twice or more
C[C@](N)(Cc1ccc(B(O)O)cc1C(F)(F)F)C(=O)O [Example 5, (S)-2-Amino-3-(4-borono-2-(trifluoromethyl)phenyl)-2-methylpropanoic acid]	twice or more
Cc1cc(B(O)O)cnc1C[C@H](N)C(=O)O [Example 49, (S)-2-Amino-3-(5-borono-3-methylpyridin-2-yl)propanoic acid]	twice or more

System: not listed separately
Assay: Single dose toxicity test
Format: in vivo
Details: single tail vein injection, 250, 500 and 1000 mg/kg, 5 animals per group, observation period 8 days
Protocol: In a beaker, 17.6 mL of 1 mol/L NaOH was put, and 24 mL of water for injection was further added and mixed. To this was added 2.52 g of D-sorbitol. After confirming complete dissolution, 17.1 mL of 1 mol/L hydrochloric acid was added to adjust the pH to 7.4 to 7.8. The mixture was transferred to a measuring cylinder, the beaker was washed with water for injection, and the washing liquid was transferred to the measuring cylinder. This operation was repeated as much as possible, and the volume of the liquid in the measuring cylinder was increased to 80 mL while the beaker was washed. The mixture was filtration-sterilized with a filter (Millex GV, pore size: 0.22 μm, Merck, sterilized disposable product), affording a 3.15% D-sorbitol solution.
On the other hand, 10.1 mL of a 1 mol/L aqueous sodium hydroxide solution was put in a beaker, and 13.8 mL of water for injection was further added and mixed. To this were added 2.30 g of test substance and 1.45 g of D-sorbitol. After confirming complete dissolution, 1.36 mL of 1 mol/L hydrochloric acid was added to adjust the pH to 7.4 to 7.8. The mixture was transferred to a measuring cylinder, the beaker was washed with water for injection, and the washing liquid was transferred to the measuring cylinder. […]

Compound	change due to administration of the test substance (single dose toxicity)
C[C@](N)(Cc1ccc(B(O)O)cc1F)C(=O)O [Example 1, (S)-2-amino-3-(4-borono-2-fluorophenyl)-2-methylpropanoic acid]	no serious change due to the administration of the test substance was observed in any of the administration groups
C[C@](N)(Cc1ccc(B(O)O)cc1Cl)C(=O)O [Example 9, (S)-2-Amino-3-(4-borono-2-chlorophenyl)-2-methylpropanoic acid]	no serious change due to the administration of the test substance was observed in any of the administration groups
